Test results: PubChem BioAssay (NCI)
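Dose response: 5 concentrations. Exposure: 48 h. Format: 96-well plates. Endpoint: linear interpolation; highest concentration if not reached. Here, GI50 denotes the concentration required for 50% inhibition of growth. TGI marks complete inhibition of growth.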

How the values were obtained:
Experiment in all cases: NCI-60 cell line screen, 48 h
MALME-3M melanoma = test system: MALME-3M melanoma
MCF7 breast = test system: MCF7 breast
UACC-257 melanoma = test system: UACC-257 melanoma
HCC-2998 colon = test system: HCC-2998 colon
NCI-H23 lung = test system: NCI-H23 lung
HOP-62 NSCLC = test system: HOP-62 NSCLC
CCRF-CEM leukemia = test system: CCRF-CEM leukemia
TK-10 renal = test system: TK-10 renal
UO-31 renal = test system: UO-31 renal
OVCAR-5 ovarian = test system: OVCAR-5 ovarian

Compound	TGI (MALME-3M melanoma)	TGI (MCF7 breast)	TGI (UACC-257 melanoma)	TGI (HCC-2998 colon)	TGI (NCI-H23 lung)	TGI (HOP-62 NSCLC)	TGI (CCRF-CEM leukemia)	TGI (TK-10 renal)	TGI (UO-31 renal)	TGI (OVCAR-5 ovarian)	GI50 (MALME-3M melanoma)	GI50 (MCF7 breast)	GI50 (UACC-257 melanoma)	GI50 (HCC-2998 colon)	GI50 (NCI-H23 lung)	GI50 (HOP-62 NSCLC)	GI50 (CCRF-CEM leukemia)	GI50 (TK-10 renal)	GI50 (UO-31 renal)	GI50 (OVCAR-5 ovarian)
Cc1nc2ccc(S(=O)(=O)O)cc2c(=O)n1-c1ccc(C(=O)NN2C(=O)C(Cl)C2c2cccs2)cc1 (stereo not given)	> 100 µM	> 100 µM	> 100 µM	> 100 µM	> 100 µM	60.1 µM	> 100 µM	> 100 µM	> 100 µM	> 100 µM	–	–	–	–	–	–	–	–	–	–
COC(=O)/C(=N\N)C(C(=O)C(=O)Nc1cc(Cl)ccc1Cl)c1nc2ccc([N+](=O)[O-])cc2[nH]c1=O (stereo not given)	> 100 µM	> 100 µM	> 100 µM	> 100 µM	> 100 µM	> 100 µM	> 100 µM	> 100 µM	> 100 µM	> 100 µM	–	–	–	–	–	–	–	–	–	–
CCCCCC(=O)OC[n+]1cccc(-c2c(COC(=O)NC(C)C)c(COC(=O)NC(C)C)c3n2CCC3)c1	> 100 µM	> 100 µM	> 100 µM	> 100 µM	> 100 µM	> 100 µM	> 61 µM	> 100 µM	> 100 µM	> 100 µM	–	–	–	–	–	–	–	–	–	–
CC1OC(OC2C(OC(=O)[C@]34CCC(C)(C)C[C@H]3C3=CC[C@@H]5[C@@]6(C)CC[C@H](OC7OC(CO)C(O)C(O)C7OC7OC(CO)C(O)C(O)C7O)C(C)(C)[C@@H]6CC[C@@]5(C)[C@]3(C)CC4)OCC(O)C2O)C(O)C(O)C1OC1OCC(O)C(O)C1O (stereo not given in full)	12.6 µM	29.3 µM	9.17 µM	4.79 µM	24.5 µM	30.8 µM	42.3 µM	21.7 µM	6.17 µM	21.7 µM	–	–	–	–	–	–	–	–	–	–
C=CCN(c1cc(O)c2c(c(C)cn2S(=O)(=O)c2ccccc2)c1[N+](=O)[O-])S(C)(=O)=O	> 100 µM	> 100 µM	> 100 µM	> 100 µM	> 100 µM	> 100 µM	> 100 µM	> 100 µM	> 100 µM	> 100 µM	–	–	–	–	–	–	–	–	–	–
Cc1ccc2c(=O)cc(-c3cc(C)sc3C)[nH]c2n1	> 100 µM	> 100 µM	> 100 µM	36.3 µM	> 24 µM	> 100 µM	> 25.5 µM	> 100 µM	> 100 µM	> 100 µM	–	–	–	–	–	–	–	–	–	–
Cc1nc2ccc(N=Nc3c(C)noc3C)cc2[nH]1	> 100 µM	84 µM	> 100 µM	> 100 µM	> 100 µM	> 100 µM	> 100 µM	> 100 µM	> 100 µM	> 100 µM	–	–	–	–	–	–	–	–	–	–
Nc1ccc2c(=S)c3ccccc3[nH]c2c1	> 100 µM	> 100 µM	> 100 µM	> 100 µM	> 100 µM	> 73 µM	> 95.4 µM	> 100 µM	> 100 µM	> 100 µM	–	–	–	–	–	–	–	–	–	–
CC(C)=CCC[C@@H](C)C1=C(N)C(O)=C(C)C(=O)C1=O	> 75 µM	> 75 µM	> 75 µM	> 75 µM	> 75 µM	> 75 µM	> 70.9 µM	> 75 µM	> 75 µM	> 75 µM	–	–	–	–	–	–	–	–	–	–
Cc1nc2ccccc2n1Cc1nnc(-c2ccccc2)o1	> 100 µM	> 100 µM	> 100 µM	> 100 µM	> 100 µM	> 100 µM	> 100 µM	> 100 µM	> 100 µM	> 100 µM	–	–	–	–	–	–	–	–	–	–
NC(CCC(=O)O)C(=O)NC(Cc1ccc(N(CCCl)CCCl)cc1)C(=O)O (stereo not given)	> 100 µM	> 100 µM	> 100 µM	> 100 µM	> 100 µM	> 100 µM	> 100 µM	> 100 µM	> 100 µM	> 100 µM	–	–	–	–	–	–	–	–	–	–
S=c1[nH]nc(Cn2c3ccc(Br)cc3c3nc4ccccc4nc32)o1	> 100 µM	> 100 µM	> 100 µM	> 100 µM	> 100 µM	99.2 µM	> 100 µM	> 100 µM	40.8 µM	> 100 µM	–	–	–	–	–	–	–	–	–	–
Nc1nccc(NCC2(CO)CC(CCc3ccccc3)C2)n1 (stereo not given)	29.1 µM	22.2 µM	37.9 µM	35.9 µM	41.4 µM	38 µM	55.5 µM	25.5 µM	32.3 µM	34.2 µM	–	–	–	–	–	–	–	–	–	–
COC(=O)[C@@H]1Cc2ccc(OC)c(c2)OCCC(=O)N1	> 100 µM	> 100 µM	> 100 µM	> 100 µM	> 100 µM	> 100 µM	> 100 µM	> 100 µM	> 100 µM	> 100 µM	–	–	–	–	–	–	–	–	–	–
CC(C)(C)OC(=O)/N=C/c1c(O)c2ccccc2oc1=O	> 100 µM	> 100 µM	> 100 µM	> 100 µM	> 100 µM	> 100 µM	> 100 µM	66.7 µM	> 100 µM	> 100 µM	–	–	–	–	–	–	–	–	–	–
CCOC(=O)c1c(C)n(-c2ccc(C)cc2)c(=O)c2ccccc2c(=O)c2c(=O)ccc(=O)c1=2	32.5 µM	63.9 µM	51.2 µM	27.7 µM	32 µM	46 µM	> 100 µM	29.4 µM	> 100 µM	75.5 µM	–	–	–	–	–	–	–	–	–	–

Compound	TGI (MALME-3M melanoma)	TGI (MCF7 breast)	TGI (UACC-257 melanoma)	TGI (HCC-2998 colon)	TGI (NCI-H23 lung)	TGI (HOP-62 NSCLC)	TGI (CCRF-CEM leukemia)	TGI (TK-10 renal)	TGI (UO-31 renal)	TGI (OVCAR-5 ovarian)	GI50 (MALME-3M melanoma)	GI50 (MCF7 breast)	GI50 (UACC-257 melanoma)	GI50 (HCC-2998 colon)	GI50 (NCI-H23 lung)	GI50 (HOP-62 NSCLC)	GI50 (CCRF-CEM leukemia)	GI50 (TK-10 renal)	GI50 (UO-31 renal)	GI50 (OVCAR-5 ovarian)
O=C(O)c1ccccc1/C=C1\Cc2cc3c(cc2C1=O)CCC3	> 100 µM	68.5 µM	79.2 µM	68.3 µM	58.8 µM	65.2 µM	44.2 µM	65.8 µM	> 100 µM	> 100 µM	–	–	–	–	–	–	–	–	–	–
CN(CC(=O)Nc1ccccc1C(=O)O)c1ccccc1	> 100 µM	> 100 µM	> 100 µM	> 100 µM	> 100 µM	> 100 µM	> 100 µM	> 100 µM	> 100 µM	> 100 µM	–	–	–	–	–	–	–	–	–	–
COC(=O)C(C)NP(=O)(OCc1cccc(Cn2cnc3c(N)ncnc32)c1)Oc1ccccc1 (stereo not given)	> 100 µM	66.6 µM	> 100 µM	53.7 µM	> 100 µM	> 100 µM	> 100 µM	> 100 µM	> 100 µM	> 100 µM	68.2 µM	14.9 µM	> 100 µM	10.9 µM	66 µM	> 100 µM	50.5 µM	> 100 µM	> 100 µM	> 100 µM
COC(=O)c1sc(=S)sc1SCc1cccc(CSc2sc(=S)sc2C(=O)OC)c1	> 100 µM	> 100 µM	> 100 µM	> 100 µM	> 100 µM	67.1 µM	> 100 µM	96.9 µM	> 100 µM	> 100 µM	–	–	–	–	–	–	–	–	–	–
N#CCC(=O)N/N=C\C(O)C(O)C(O)C(O)CO (stereo not given)	> 100 µM	> 100 µM	> 100 µM	> 100 µM	> 100 µM	> 100 µM	> 100 µM	> 100 µM	> 100 µM	> 100 µM	–	–	–	–	–	–	–	–	–	–
CC(=O)n1c2ccc(Br)cc2c2nc3ccccc3nc21	> 100 µM	> 100 µM	> 100 µM	> 100 µM	> 100 µM	> 100 µM	> 100 µM	> 100 µM	> 100 µM	> 100 µM	–	–	–	–	–	–	–	–	–	–
O=c1c2sc3ccccc3sc=2c(=O)c2c(Cl)c(Cl)c(Cl)c(Cl)c12	> 100 µM	> 100 µM	> 100 µM	> 100 µM	> 100 µM	> 100 µM	> 100 µM	> 100 µM	> 100 µM	> 100 µM	–	–	–	–	–	–	–	–	–	–
CC1C(OS(=O)(=O)c2ccc3[nH]c(=S)sc3c2)CC2C3(C)CCC2(C(C)C(=O)O)C(O)C13 (stereo not given)	83.8 µM	> 100 µM	> 100 µM	> 100 µM	38.3 µM	66.5 µM	65.5 µM	> 100 µM	39.8 µM	93.3 µM	–	–	–	–	–	–	–	–	–	–
COC(=O)c1c(C)cccc1C1CN=NC12Cc1cc(C)c(C)cc1C2=O (stereo not given)	> 100 µM	> 100 µM	> 100 µM	> 100 µM	> 100 µM	> 100 µM	> 100 µM	> 100 µM	> 100 µM	> 100 µM	–	–	–	–	–	–	–	–	–	–
Cc1cc2nnn(C3CCCCO3)c2cc1C (stereo not given)	> 100 µM	> 100 µM	> 100 µM	> 100 µM	> 100 µM	> 100 µM	> 100 µM	> 100 µM	> 100 µM	> 100 µM	–	–	–	–	–	–	–	–	–	–
CCN(C(=O)N[C@@H](CC(C)C)C(=O)NCC(=O)OC)c1ccccc1	51.1 µM	> 100 µM	61.9 µM	> 100 µM	> 100 µM	> 100 µM	> 100 µM	> 100 µM	> 100 µM	> 100 µM	–	–	–	–	–	–	–	–	–	–
NS(=O)(=O)c1c(O)c2ccccc2oc1=O	> 100 µM	> 100 µM	> 100 µM	> 100 µM	> 100 µM	> 100 µM	> 100 µM	> 100 µM	> 100 µM	> 100 µM	–	–	–	–	–	–	–	–	–	–
O=c1oc2ccccc2c(-c2ccc(O)cc2)c1Oc1ccccc1	9.26 µM	> 100 µM	30.7 µM	19.8 µM	18.7 µM	> 100 µM	> 100 µM	> 96.7 µM	32.3 µM	70 µM	–	–	–	–	–	–	–	–	–	–
O=C(/C=C/c1ccccc1)CCN1CCCCC1	> 100 µM	89.9 µM	> 100 µM	> 100 µM	89.8 µM	> 100 µM	> 100 µM	> 100 µM	> 100 µM	> 100 µM	–	–	–	–	–	–	–	–	–	–
C(=NC12CC3CC(CC(C3)C1)C2)C1CCCCC1	> 100 µM	> 100 µM	> 100 µM	> 100 µM	> 100 µM	> 100 µM	> 100 µM	> 100 µM	> 100 µM	> 100 µM	–	–	–	–	–	–	–	–	–	–
